The text below walks through data of US9956267B2, “Method of treating skeletal dysplasias using vessel dilator” (University of South Florida, priority 2010, dated 2018).

Where “and” joins values, the source holds several entries; their conditions need not be identical. Identical values can stand only once. Positions of bridges follow the written chain, without caps; N, C: chain ends. No end group written: not given here. Bounds are passed on as bounds.

For series [1], the system named is ERK 1/2 kinases. Conditions: ATDC5 cells, mouse chondrogenic cell line; cited from earlier work.
For series [2] the following is noted: in vivo; cited from earlier work.
Series [3] deals with human osteoblast cells (ATCC number CRL-11372). Put plainly: Cell Titer 96 Aqueous One Solution (MTS) cell proliferation assay of human osteoblasts. The class given is cell-based. Conditions: for enhancement of human osteoblast proliferation compared with controls: absorbance at 490 nm at day 7. The method, then:
A cell line (ATCC number CRL-11372) of human osteoblast cells was purchased from the American Type Culture […] (ATCC, Manassas, Va.). Propagation of the human osteoblast cells was in a 1:1 mixture of Ham's F12 Medium and Dulbecco's Modified Eagles Medium (DMEM) with 2.5 mM L-glutamine without phenol red. Base medium was supplemented with 0.3 mg/mL of Geneticin (G418) antibiotic and 10% fetal bovine serum (Harris S A, et al. 1995 Developmental and characterization of a conditionally immortalized human fetal osteoblastic cell line. J Bone Miner Res 10:178-186). Cells were incubated at a temperature of 34° C. in 5% CO2 at which they have rapid cell division, doubling every 36 hours (Harris S A, et al. 1995 Developmental and characterization of a conditionally immortalized human fetal osteoblastic cell line. J Bone Miner Res 10:178-186). […] Cells were dispensed into new flasks with subculturing every 6-8 days. The medium was changed every 3 days.
After the osteoblast cells were subcultured for 24 h, ˜5000 cells in 200 μL of the above media were then seeded (day 1) into 96-well plates (Nuclon, Roskilde, Denmark). After overnight incubation at 34° C. in 5% CO2, the media was removed (day 2), and 50 μL of fresh media was added to control wells, blank wells (with no cells inside), and 50 μL of media with 10 picomolar (pM), 100 pM, 1 nanomolar (nM), or 10 nM of CNP or vessel dilator. At day 5, in these experiments, 50 μL of fresh media was added to the controls, blank wells, and 50 μL of media with 1 nM, 10 nM, 10 pM, and 100 pM of the respective natriuretic hormones for a total volume of 100 μL of media in each well. At day 7, 20 μL of Cell Titer 96® Aqueous One Solution (Promega Corporation, Madison, Wis.) was added to each well containing 1004 of medium and allowed to incubate for 4 h in 5% CO2 atmosphere before recording absorbance at 490 nm with a 96-well plate reader (Cory A H, et al. 1991 Use of aqueous soluble tetrazolium/formazan assay for growth assays in culture. Cancer Commun 3:207-212). There were 15 observations of vessel dilator at each concentration and 16 observations of CNP at each concentration. The peptide hormones used in this investigation were from Phoenix Pharmaceuticals, Inc., Burlingame, Calif.
Cell proliferation of human osteoblasts was examined with the Cell Titer 96 Aqueous One Solution cell proliferation assay (Promega Corp.). This colorimetric method determines the viable cells' proliferation by recording the absorption at 490 nm with a 96-well plate reader (Cory A H, et al. 1991 Use of aqueous soluble tetrazolium/formazan assay for growth assays in culture. Cancer Commun 3:207-212) after incubating the respective cells at 37° C. for 4 h in a 5% CO2 atmosphere.
Approximately 5000 human osteoblast cells were in each well. The proliferation assay detects the number of viable cells in proliferation using a tetrazolium compound (3-[4,5-dimethylthiazol-2-yl]-5-[3-carboxymethoxyphenyl]-2-[4-sulfophenyl]-2H-tetrazolium, inner salt; MTS) and an electron coupling reagent [phenazine ethosulfate (PES)]. PES has enhanced chemical stability, which allows it to be combined with MTS to form a stable solution (Cory A H, et al. 1991 Use of aqueous soluble tetrazolium/formazan assay for growth assays in culture. Cancer Commun 3:207-212). The MTS tetrazolium compound (Owen's reagent) is bioreduced by living cells into a colored formazan product that is measurable at […] in a spectrophotometer, thereby eliminating any nonviable (i.e. dead) cells that would not be proliferating (Cory A H, et al. 1991 Use of aqueous soluble tetrazolium/formazan assay for growth assays in culture. Cancer Commun 3:207-212). This method measure only viable cells' proliferation as dead cells are unable to reduce the MTS tetrazolium compound to a colored formazan product.
All data are expressed as mean±SEM. Statistical significance was determined by the Mann-Whitney test (also called Wilcoxon rank-sum test) for different sample sizes. […]

For series [4], the system named is cyclic GMP (cGMP) in chondrocytes. Conditions: CNP versus ANP; cited from earlier work.
Series [5] can be described thus: circulatory half-life of natriuretic peptides. The class given is in vivo, human. The settings on record: vessel dilator versus CNP. Here is the method:
(§1) CNP and ANP are ring-structured natriuretic peptides with very short half-lives of <3 min in the circulation (Kalra P R, et al. 2001 The role of C-natriuretic peptide in cardiovascular medicine. Eur Heart J 22:997-1007, Teixeira C C, et al. 2008 Nitric oxide, C-type natriuretic peptide and cGMP as regulators of endochondral ossification. Dev Biol 319:171-178; Nakao K, et al. 1986 The pharmacokinetics of α-human natriuretic polypeptide in healthy subjects. Eur J Clin Pharmacol 31:101-103; Yandle T G, et al. 1986 Metabolic clearance rate and plasma half life of alpha-human atrial natriuretic peptide in man. Life Sci 38:1827-1833). Their biologic effects last for <30 min. […] J Pharmacol Exp Ther 282:603-608) and its biologic effects last >6 h (Vesely D L, et al. 1994 Three peptides from the atrial natriuretic factor prohormone amino terminus lower blood pressure and produce diuresis, natriuresis, and/or kaliuresis in humans. Circulation 90:1129-1140).
(§2) The gene for CNP is expressed in bone (Mericq V, et al. 2000 Regulation of fetal rat bone growth by C-type natriuretic peptide and cGMP. Pediatr Res 47:189-193) to allow it to be an autocrine/paracrine regulator of bone. […] Life Sci 38:1827-1833; Ackerman B H, et al. 1997 Disposition of vessel dilator and long-acting natriuretic peptide in healthy humans after a one-hour infusion. […]

Series [6] is described as follows: duration of biologic effects of natriuretic peptides. Type of series: in vivo, human. The settings on record: versus CNP. Here is the method: as §1, §2
Another series has as its system MEK 1/2 kinases. The settings on record: proliferating prostate cancer cells; cited from earlier work.
Series [7] deals with ERK 1/2 kinases. Conditions: cited from earlier work.
For series [8] the following is noted: in vivo; cited from earlier work. This is another data set of the same source.

On to `Nc1nc2c(nc(Br)n2[C@@H]2O[C@@H]3COP(=O)(O)O[C@H]3[C@H]2O)c(=O)[nH]1` [8-bromo cGMP], for which the “effect on mitogen- (fibroblast growth factor) stimulated ERK 1/2 kinases' phosphorylation” value in the series with ERK 1/2 kinases [1] was “inhibit”.

Consider “BNP: natriuretic peptide named with CNP and ANP, biologic effects less than 30 minutes [reference compound]”, for which the “duration of biologic effects” value in series [2] is reported as “less than 30 min”.

With “CNP: 22 amino acid peptide having a 17-amino acid ring, generated from the natriuretic peptide precursor C gene (GLSKGCFGLKLDRIGSMSGLGC; disulfide 6-22 (inferred); UniProt P23582 105-126, looked up) [reference compound]”, the “enhancement of human osteoblast proliferation compared with controls” value is reported as “no significant enhancement” in [3] (10 pM peptide) and 27% in series [3] (10 nM peptide). Further, in the series with ERK 1/2 kinases [1], the “effect on mitogen- (fibroblast growth factor) stimulated ERK 1/2 kinases' phosphorylation” value is listed as “inhibit”. Also, in series [4], the “stimulation of cGMP in chondrocytes relative to ANP” value is given as 10 fold.

For the compound “Vessel dilator: linear natriuretic peptide synthesized by the ANP gene; cardiac hormone, molecular weight 3878.31 (EVVPPQVLSEPNEEAGAALSPLPEVPPWTGEVSPAQR; Vessel dilator; UniProt P01160 56-92, looked up)”, the “enhancement of human osteoblast proliferation compared with controls” value was determined as 8% in series [3] (10 pM peptide), 7% in [3] (100 pM peptide), 6% in series [3] (1 nM peptide) and 8% in series [3] (10 nM peptide). Moreover, in series [3] (compared with CNP), the “stimulates osteoblasts at lower concentrations than CNP” value is listed as 1000. In addition, the “circulating half-life longer than CNP” value in series [5] amounted to 36 fold. Besides, the “biologic effects longer than CNP, ANP or BNP” value in series [6] was 12 times and > 12 times. In series [2], the “duration of biologic effects” value is reported as above 6 h. In addition, the “inhibition of activation, i.e. phosphorylation, of MEK 1/2 kinases” value with MEK 1/2 kinases was 98%. The “effect on mitogen (epidermal growth factor, EGF) stimulation of ERK 1/2 kinases” value with ERK 1/2 kinases [7] (EGF stimulation) is reported as “completely blocks”. The “inhibition of the phosphorylation of basal activity of ERK 1/2 kinases” value with ERK 1/2 kinases [7] (proliferating cells, basal activity) is 96%. Also, the circulatory half-life in [8] was 1.78 h. For the same compound, in [8], the “duration of biologic effect” value was above 6 h.
